The subject of series [1] is U87-MG cells. As to the kind of experiment: Cytoskeleton immunostaining (microfilaments, microtubules), confocal microscopy. The class given is cell-based, human. Particulars: 10 µM, 24 h. As for the experimental part: (§1) To determine the influence of the CCPs on actin microfilament and microtubule organization, the cells were labeled with rhodamine-conjugated phalloidin (Molecular Probes, Cat. # R415), and mouse monoclonal anti-bovine α-tubulin antibodies (Molecular Probes Cat. # A11126) and secondary Alexa-488 goat anti-mouse IgG (Molecular Probes Cat. # A-11017), respectively. The cells (3000/well) were plated into 16-well plates (Culture Well Chambered Coverglass for Cell Culture; […].
(§2) The cells in all the experiments were exposed to the CCPs for an additional 24 h in the CO2 incubator at 37 °C in a 5% CO2 atmosphere before they were fixed.
(§3) Fixing and staining. The cells were washed in phosphate-buffered saline (PBS) and fixed in 3.7% paraformaldehyde in either PBS (37 °C, 30 min; for microfilaments, microtubules, nestin) or in ice-cold methanol (4 °C, 10 min; for GFAP, desmoplakin I+II). Then the cells were permeabilized in PBS containing 0.1% Triton X-100 (v/v; Merck, Germany) for 20 min and blocked in 4% bovine serum albumin (Sigma) at room temperature for 10 min. For desmoplakin I+II visualization, the cells were blocked in 10% fetal bovine serum (Sigma) for 60 min without cell permeabilization. Microfilaments were stained with rhodamine-conjugated phalloidin (1:40) for 30 min at room temperature. Microtubules were visualized by immunostaining using an anti-α-tubulin antibody overnight at 4 °C (1:200 in PBS containing Ca^2+, 0.1% [v/v] Tween-20) and the secondary antibodies labeled with Alexa-488 goat anti-mouse IgG (1:1000; 30 min at room temperature). Intermediate filaments were stained using anti-nestin (1:500; overnight at 4 °C) and anti-GFAP (1:500, overnight at 4 °C) antibodies. The anti-nestin-labeled cells were visualized using secondary antibodies labeled with Alexa-488 goat anti-mouse IgG and the anti-GFAP-labeled cells with Alexa-488 anti-rabbit IgG (1:1000 dilution, room temperature, 30 min). Desmoplakin I+II were stained with a mouse anti-desmoplakin I+II antibody (1:500 dilution; room temperature, 60 min) and visualized with Alexa-488 goat anti-mouse IgG (1:1000 dilution; room temperature, 30 min). The cell nuclei were stained with To-Pro-3 (Molecular Probes; 1:1000 dilution; room temperature, 30 min). After each step, the samples were washed three times with PBS. Finally, all the cell preparations were immersed in an antifade reagent (Prolong Gold; Molecular Probes) to prevent photobleaching.
(§4) Microscopy. […] The cell preparations were also examined under light microscopy (Eclipse TE 3000; Nikon, Japan), and the images were recorded under phase contrast and epifluorescence (i.e., B-2A and G-2A filters, respectively).

For series [2], the system named is NHAs. As to the kind of experiment: Intermediate filament immunostaining (nestin, GFAP), confocal microscopy. The class given is cell-based, human. The method, then:
(§5) For the intermediate filaments, visualization at 1 µM MC-LR was used as the positive control. The cells were stained with rabbit monoclonal anti-GFAP (Merck Millipore, Bedford, MA, USA, Cat. # AB5804) and secondary Alexa-488 goat anti-rabbit IgG (Molecular Probes, Cat. # A-11034) antibodies and with mouse monoclonal anti-nestin (Merck Millipore, Cat. # MAB5326) and secondary Alexa-488 goat anti-mouse IgG (Molecular Probes, Cat. # A-11017) antibodies.
as §2, §3, §4

Series [3] is described as follows: Interaction with the air–water interface (Langmuir trough, no lipids). It is filed as physicochemical. To be noted: absence of lipids, 0–30 µM injected, 25 °C, pH 7.5. The method, then:
Lateral pressure measurements were carried out in a Langmuir trough (MicroTrough-S system; Kibron, Helsinki, Finland) at room temperature (25 °C) under constant stirring. The aqueous sub-phase was 500 µL 10 mM Hepes, 200 mM NaCl, and pH 7.5.

For series [4], the system named is NHAs. Put plainly: Cytoskeleton immunostaining (microfilaments, microtubules), confocal microscopy. It is filed as cell-based, human. Particulars: 10 µM, 24 h. The method, then: as §1, §2, §3, §4
Series [5] concerns U87-MG cells. Put plainly: Intermediate filament immunostaining (nestin, GFAP), confocal microscopy. The class given is cell-based, human. As for the experimental part: as §5, §2, §3, §4
The test system of series [6] is U87-MG cells. As to the kind of experiment: MTT metabolic activity / cell viability. The class given is cell-based, human. The method, then:
Normal human astrocytes (NHAs; Lonza, Walkersville, MD, USA) were grown and maintained in monolayer cultures in Dulbecco’s modified Eagle’s medium (DMEM; Sigma) supplemented with 10% fetal bovine serum (Euroclone, Pero, MI, Italy), 1% penicillin/streptomycin (Euroclone), 2 mM L-glutamine (Euroclone), and 20 mM Hepes (Invitrogen, Carlsbad, CA, USA). The U87-MG human glioblastoma cells (U87-MG cells; American Type Culture Collection, Manassas, VA, USA) were grown and maintained in monolayer cultures in DMEM supplemented with 10% fetal bovine serum, 1% penicillin/streptomycin, 4 mM L-glutamine, and 1% non-essential amino acids (Sigma).
Cell viability was determined using the 3-(4,5-dimethylthiazolyl-2)-2,5-diphenyltetrazolium bromide (MTT) assay, as according to Mosmann. This assay measures the conversion of MTT to its insoluble formazan by the dehydrogenase enzymes of the intact mitochondria of living cells. […]; Nunclon; Nunc, Naperville, IL, USA) and incubated for 16 h at 37 °C for attachment. […] The amount of formazan, which is proportional to the metabolic activity of cells, was quantified spectrophotometrically at 570 nm (reference filter wavelength, 690 nm) using a microplate reader (Synergy MX; BioTek, Winooski, VT, USA). The metabolic activity of the cells was determined by comparing the optical densities of the CCP-treated cells with those of the negative control. […]

Series [7] has as its system U87-MG cells. As to the kind of experiment: Cell morphology, light microscopy (phase contrast). The class given is cell-based, human.

Like-named read-outs stand apart in the source and are kept apart here. *1 amine or outer side, *2 acyl side, *3 side chain or, on linkers, in order; H or OH if unused. Where a SMILES comes first, the peptide text is derived from it. Bridges are numbered along the chain shown (N, C = ends). [ ]: non-standard residue; d: D form. Adda = CO[C@@H](Cc1ccccc1)[C@@H](C)/C=C(C)/C=C/[C@H](N[*:1])[C@H](C)C(=O)[*:2]; dAsp(3S-Me) = C[C@H](C(=O)[*:3])[C@@H](N[*:1])C(=O)[*:2]; d(γGlu) = O=C(O)[C@@H](CCC(=O)[*:2])N[*:1]; hTyr = N[C@@H](CCc1ccc(O)cc1)C(=O)O; NMeA = CN[C@@H](C)C(=O)O; NMeDha = C=C(NC)C(=O)O; CO = O=C([*:1])[*:2]

On to `CC[C@H](C)[C@@H]1NC(=O)[C@H](NC(=O)N[C@@H](CCCNC(=N)N)C(=O)O)CCCCNC(=O)[C@H](Cc2ccccc2)NC(=O)[C@H](C)N(C)C(=O)[C@H](CCc2ccc(O)cc2)NC1=O` [anabaenopeptin F] ({Arg-CO}-[dK]I[hTyr][NMeA]F; lactam 1-C), for which the “microfilament (actin) organization” value with U87-MG cells [1] is reported as “actin aggregation”.
`CC(C)[C@@H]1NC(=O)[C@H](NC(=O)N[C@@H](CCCNC(=N)N)C(=O)O)CCCCNC(=O)[C@H](Cc2ccccc2)NC(=O)[C@H](C)N(C)C(=O)[C@H](CCc2ccc(O)cc2)NC1=O` [anabaenopeptin B] ({Arg-CO}-[dK]V[hTyr][NMeA]F; lactam 1-C): the “GFAP immunolabeling, cell shape” value in the series with NHAs [2] (NHAs, 24 h) is “characteristic twisted outgrowths”.
Consider `CC[C@H](C)[C@@H]1NC(=O)[C@H](Cc2ccc(OC)cc2)N(C)C(=O)[C@H]([C@@H](C)O)N2C(=O)[C@H](CC[C@H]2O)NC(=O)[C@H](CC(C)C)NC(=O)[C@@H](NC(=O)[C@H](CCC(N)=O)NC(=O)[C@H](CCc2ccc(O)cc2)NC(=O)[C@@H](O)CO)[C@@H](C)OC1=O`, for which, in series [3], the “concentration at which saturation of the air–water interface was observed” value came to 25 µM. For the same compound, the “microfilament and microtubule organization” value in the series on NHAs [4] is recorded as “strong cytolytic effects on the NHAs, with the collapse of the microfilaments in the center of the cell”. For the same compound, in the series on U87-MG cells [1], the “microfilament (actin) organization” value was “aggregation of the cortical microfilaments along the basal membrane and degradation of the membrane ruffles”; the microtubule organization result was “the microtubules were reorganized and concentrated around the nucleus”. Also, the GFAP filament organization entry with U87-MG cells [5] (U87-MG, 24 h) was “concentration of the GFAP filaments was observed along the entire cell body”.
Turning to `C=C1C(=O)N[C@H](C)C(=O)N[C@@H](CC(C)C)C(=O)N[C@@H](C(=O)O)[C@H](C)C(=O)N[C@@H](CCCNC(=N)N)C(=O)N[C@@H](/C=C/C(C)=C/[C@H](C)[C@H](Cc2ccccc2)OC)[C@H](C)C(=O)N[C@@H](C(=O)O)CCC(=O)N1C` [MC-LR, Microcystin-LR, reference compound] (R[Adda][d(γGlu)][NMeDha][dA]L[dAsp(3S-Me)]-OH; lactam N-7), in the series on U87-MG cells [6], the “mean decrease in viability” value is 15% and the “viability vs control” value is listed as “not significantly changed”. The “morphological changes under light microscopy” value with U87-MG cells [7] is listed as “loss of astrocytic domain organization, but also in a reduction in cell numbers”. Also, the nestin organization entry with NHAs [2] is “most intense nestin concentration”. In addition, in the series with U87-MG cells [5], the GFAP filament organization result is listed as “concentration of the GFAP filaments was observed along the entire cell body”.
